Experimental data as given in US8367342B2, “Cardiac hypertrophy” (Lead Pharma Drug Development IP B.V., priority 2006, dated 2013).

Test system: neonatal rat ventricular myocytes
Test: Cardiomyocyte hypertrophy (a-actinin staining, cell surface area) in cultured neonatal rat cardiomyocytes
Type: cell-based
Design: dose or concentration left out as unconfirmed
Details: cells treated with the control siRNA; AdCnA infection or phenylephrine
Procedure: Cardiomyocyte cultures and siRNA transfection. Neonatal rat ventricular myocytes were obtained as described previously in detail^6. Neonatal ventricular rat myocytes were obtained by enzymatic dissociation of 1-2 day old rat neonatal ventricles. Ventricles were stored in HEPES buffered DMEM (pH. 7.4) prior to multiple rounds of enzymatic digestion in DMEM nutrient mixture F-12 Ham base (Sigma) supplemented with 0.7 mg/ml collagenase type 2 (Invitrogen) and 1 mg/ml […] (Sigma). Cells were collected by centrifugation at 61×g for 10 min., resuspended in neonatal calf serum (Invitrogen) and stored in an incubator at 37° C. All cell suspensions were pooled, centrifuged at 61×g for 10 min. and resuspended in DMEM (Invitrogen) supplemented with 10% horse serum (Invitrogen) and 5% fetal calf serum (Invitrogen). […]
Immunocytochemistry and confocal microscopy. […] Cells were washed 3 times with PBS for 5 minutes, mounted with coverslips in 0.1 M Tris-HCl (pH 9.5)-glycerol (3:7) including 50 mg/ml n-propylgallate as anti-fading reagent, and analyzed by confocal microscopy using a Zeiss LSM 510 META instrument. […] Cell surface areas were determined using SPOT-imaging software (Diagnostic Instruments) on 80-100 GFP-positive cardiomyocytes in 10 to 20 fields in three independent experiments. […]

Question: How did the hypertrophy response turn out when CNC[C@H](O)c1cccc(O)c1 [PE, phenylephrine] was run?
Answer: The hypertrophy response was “robust hypertrophy response”.
